Source: the NIST ThermoML archive (doi:10.1016/j.jct.2018.01.019)
± gives the expanded uncertainty stated by the source.

Test: molar heat capacity at constant pressure
Details: 101.33 kPa, Crystal 2, Small sample (50 mg) DSC

O=[Si]=O [silicon dioxide]
Details	molar heat capacity at constant pressure [J/K/mol]
285 K	43.21 ± 0.7
290 K	43.7 ± 0.71
295 K	44.22 ± 0.72
300 K	44.74 ± 0.72
305 K	45.21 ± 0.72
310 K	45.69 ± 0.73
315 K	46.16 ± 0.74
320 K	46.62 ± 0.75
325 K	47.09 ± 0.76
330 K	47.56 ± 0.76
335 K	48.02 ± 0.76
340 K	48.49 ± 0.77
345 K	48.94 ± 0.78
350 K	49.39 ± 0.78
355 K	49.78 ± 0.79
360 K	50.22 ± 0.8
365 K	50.62 ± 0.8
370 K	51.02 ± 0.81
375 K	51.38 ± 0.81
380 K	51.76 ± 0.81
385 K	52.15 ± 0.82
390 K	52.52 ± 0.82
395 K	52.89 ± 0.83
400 K	53.25 ± 0.84
405 K	53.61 ± 0.84
410 K	53.99 ± 0.85
415 K	54.34 ± 0.86
420 K	54.7 ± 0.86
425 K	55.03 ± 0.86
430 K	55.38 ± 0.87
435 K	55.74 ± 0.87
440 K	56.07 ± 0.88
445 K	56.42 ± 0.88
450 K	56.75 ± 0.89
455 K	57.1 ± 0.9
460 K	57.4 ± 0.9
465 K	57.69 ± 0.9
470 K	58.01 ± 0.91
475 K	58.29 ± 0.91
480 K	58.59 ± 0.91
485 K	58.87 ± 0.91
490 K	59.12 ± 0.92
495 K	59.37 ± 0.92
500 K	59.63 ± 0.93
505 K	59.91 ± 0.93
510 K	60.16 ± 0.94
515 K	60.41 ± 0.94
520 K	60.66 ± 0.95
525 K	60.91 ± 0.95
530 K	61.15 ± 0.96
535 K	61.41 ± 0.96
540 K	61.66 ± 0.96
545 K	61.92 ± 0.96
550 K	62.19 ± 0.97
555 K	62.45 ± 0.97
560 K	62.73 ± 0.98
565 K	63.01 ± 0.98
570 K	63.26 ± 0.98
575 K	63.49 ± 0.99
580 K	63.74 ± 0.99
585 K	64.01 ± 1
590 K	64.24 ± 1
595 K	64.46 ± 1
600 K	64.69 ± 1
605 K	64.89 ± 1
610 K	65.09 ± 1
615 K	65.3 ± 1
620 K	65.5 ± 1
625 K	65.73 ± 1
630 K	65.97 ± 1
635 K	66.17 ± 1
640 K	66.38 ± 1
645 K	66.62 ± 1
650 K	66.84 ± 1
655 K	67.01 ± 1
660 K	67.18 ± 1
665 K	67.38 ± 1
670 K	67.57 ± 1
675 K	67.75 ± 1.1
680 K	67.94 ± 1.1
685 K	68.16 ± 1.1
690 K	68.35 ± 1.1
695 K	68.56 ± 1.1
700 K	68.75 ± 1.1
705 K	68.95 ± 1.1
710 K	69.14 ± 1.1
715 K	69.35 ± 1.1
720 K	69.58 ± 1.1
725 K	69.69 ± 1.1
730 K	69.83 ± 1.1
735 K	70 ± 1.1
740 K	70.22 ± 1.1
745 K	70.45 ± 1.1
750 K	70.72 ± 1.1
755 K	71 ± 1.1
760 K	71.26 ± 1.1
780.95 K	71.65 ± 1.1
781.12 K	71.67 ± 1.2
781.28 K	71.59 ± 1.1
781.45 K	71.55 ± 1.2
781.61 K	71.6 ± 1.2
781.78 K	71.49 ± 1.1
781.94 K	71.36 ± 1.1
782.11 K	71.45 ± 1.1
782.28 K	71.45 ± 1.1
782.45 K	71.54 ± 1.1
782.62 K	71.57 ± 1.1
782.78 K	71.51 ± 1.1
782.95 K	71.6 ± 1.1
783.12 K	71.5 ± 1.1
783.28 K	71.3 ± 1.1
783.45 K	71.26 ± 1.1
783.62 K	71.08 ± 1.1
783.78 K	71.24 ± 1.1
783.95 K	71.41 ± 1.1
784.12 K	71.45 ± 1.1
784.28 K	71.52 ± 1.1
784.45 K	71.54 ± 1.1
784.62 K	71.49 ± 1.1
784.78 K	71.52 ± 1.1
784.95 K	71.46 ± 1.1
785.12 K	71.45 ± 1.1
785.28 K	71.49 ± 1.1
785.45 K	71.49 ± 1.1
785.62 K	71.49 ± 1.1
785.79 K	71.54 ± 1.1
785.95 K	71.6 ± 1.1
786.12 K	71.72 ± 1.1
786.29 K	71.77 ± 1.1
786.45 K	71.65 ± 1.1
786.62 K	71.5 ± 1.1
786.78 K	71.36 ± 1.1
786.95 K	71.21 ± 1.1
787.12 K	71.35 ± 1.1
787.29 K	71.46 ± 1.1
787.46 K	71.52 ± 1.1
787.62 K	71.51 ± 1.1
787.78 K	71.6 ± 1.1
787.95 K	71.68 ± 1.1
788.12 K	71.69 ± 1.1
788.28 K	71.59 ± 1.1
788.45 K	71.56 ± 1.1
788.62 K	71.65 ± 1.1
788.79 K	71.81 ± 1.1
788.95 K	71.75 ± 1.1
789.12 K	71.7 ± 1.1
789.29 K	71.78 ± 1.1
789.45 K	71.82 ± 1.1
789.62 K	71.7 ± 1.1
789.79 K	71.66 ± 1.1
789.95 K	71.68 ± 1.1
790.12 K	71.65 ± 1.1
790.28 K	71.4 ± 1.1
790.45 K	71.28 ± 1.1
790.62 K	71.32 ± 1.1
790.78 K	71.49 ± 1.1
790.95 K	71.6 ± 1.1
791.12 K	71.65 ± 1.1
791.29 K	71.82 ± 1.1
791.45 K	71.83 ± 1.1
791.62 K	71.77 ± 1.1
791.79 K	71.7 ± 1.1
791.95 K	71.64 ± 1.1
792.12 K	71.58 ± 1.1
792.29 K	71.65 ± 1.1
792.45 K	71.69 ± 1.1
792.61 K	71.77 ± 1.1
792.78 K	71.83 ± 1.1
792.95 K	71.78 ± 1.1
793.12 K	71.69 ± 1.1
793.28 K	71.67 ± 1.1
793.45 K	71.75 ± 1.1
793.61 K	71.63 ± 1.1
793.78 K	71.65 ± 1.1
793.95 K	71.8 ± 1.1
794.12 K	71.75 ± 1.1
794.29 K	71.74 ± 1.1
794.45 K	71.73 ± 1.1
